Measurements as given in patent US20110152094A1, “Herbicidal compositions comprising flufenacet” (Bayer CropScience AG, priority 2009, published 2011).

Tests used:
[1] = tested on: MATCH resistant (Matricaria chamomilla); assay: Greenhouse trial, PE application on resistant biotypes (test method 8); type: in vivo; conditions: resistant biotype, g of AS/ha: (A) 90, (B) 1200, (A)+(B) 90 + 1200, (C) 10
Method: (§1) In the standard design of the test, seeds of various broad-leaved weed and weed grass biotypes (origins) were sown in a 8-13 cm diameter pot filled with natural soil of a standard field soil (loamy silt; non-sterile) and covered with a covering soil layer of about 1 cm. The pots were then cultivated in a greenhouse (12-16 h of light, temperature day 20-22° C., night 15-18° C.) until the time of application. The pots were treated on a laboratory track sprayer with spray liquors comprising the compositions according to the invention, mixtures of the prior art or components used individually. Application of the active compounds or active compound combinations formulated as WG, WP, EC or otherwise was carried out at the appropriate growth stages of the plants. The application rate for the spray application was 100-600 l of water/ha. After the treatment, the plants were returned to the greenhouses.
(§2) About 3 weeks after the application, the soil action or/and foliar action was assessed visually according to a scale of 0-100% in comparison to an untreated comparative group: 0%=no noticeable effect compared to the untreated comparative group; 100%=full effect compared to the untreated comparative group.
(§3) (notes: the term “seeds” also includes vegetative propagation forms such as, for example, rhizome pieces; abbreviations used: h light=hours of illumination, g of AS/ha=gram of active substance per hectare, l/ha=liter per hectare, S=sensitive, R=resistant) • 1. Pre-emergence action against weeds: seeds of various broad-leaved weed and weed grass biotypes (origins) were sown in a 8-13 cm diameter pot filled with natural soil of a standard field soil (loamy silt; non-sterile) and covered with a covering soil layer of about 1 cm. The pots were then cultivated in a greenhouse (12-16 h of light, temperature day 20-22° C., night 15-18° C.) until the time of application. The pots were treated at the BBCH stage 00-10 of the seeds/plants on a laboratory track sprayer with spray liquors comprising the compositions according to the invention, mixtures or components used individually, as WG, WP, EC or other formulations. The application rate for the spray application was 100-600 l of water/ha. After the treatment, the plants were returned to the greenhouses and, when required, treated with fertilizer and watered. • 2. Post-emergence action against weeds: seeds of various broad-leaved weed and weed grass biotypes (origins) were sown in a 8-13 cm diameter pot filled with natural soil of a standard field soil (loamy silt; non-sterile) and covered with a covering soil layer of about 1 cm. The pots were then cultivated in a greenhouse (12-16 h of light, temperature day 20-22° C., night 15-18° C.) until the time of application. The pots were treated at various BBCH stages between 11-25 of the seeds/plants, i.e. generally between two to three weeks after the start of the cultivation, on a laboratory track sprayer with spray liquors comprising the compositions according to the invention, mixtures or components used individually, as WG, WP, EC or other formulations. The application rate for the spray application was 100-600 l of water/ha. After the treatment, the plants were returned to the greenhouses and, when required, treated with fertilizer and watered. • 3. Selective pre-emergence action: seeds of various crop species (origins) were sown in a 8-13 cm diameter pot filled with natural soil of a standard field soil (loamy silt; non-sterile) and covered with a covering soil layer of about 1 cm. The pots were then cultivated in a greenhouse (12-16 h of light, temperature day 20-22° C., night 15-18° C.) until the time of application. The pots were treated at the BBCH stage 00-10 of the seeds/plants on a laboratory track sprayer with spray liquors comprising the compositions according to the invention, mixtures or components used individually, as WG, WP, EC or other formulations. The application rate for the spray application was 100-600 l of water/ha. […]

[2] = tested on: MATCH sensitive (Matricaria chamomilla); assay: as above; type: in vivo; conditions: sensitive biotype, g of AS/ha: (A) 90, (B) 1200, (A)+(B) 90 + 1200, (C) 10
Method: as §1, §2, §3

COc1nc(C)nc(NC(=O)NS(=O)(=O)c2cc(I)ccc2C(=O)O)n1 [(C) iodosulfuron, iodosulfuron]
activity MATCH resistant (visual assessment, scale 0-100% vs untreated) [1]: 60% | activity MATCH sensitive (visual assessment, scale 0-100% vs untreated) [2]: 100%
